In brackets after ≈: the same amount, converted by molar mass. Like-named read-outs stand apart in the source and are kept apart here.
Columns and labels:
[1] = test system: Rhizopus oryzae; test: MIC determination against clinical isolates of the order Mucorales (CLSI M27, 4th edition); type: cell-based; conditions: Rhizopus arrhizus, strain 2086, clinical strain
Description: (§1) MIC: Minimum Inhibitory Concentration (MIC) is defined as the lowest concentration of an antimicrobial ingredient that is bacteriostatic.
(§2) Testing has been performed in triplicates for each isolate.

[2] = test system: Rhizopus microsporus; test: as above; type: cell-based
Description: as §1, §2

[3] = test system: Aspergillus spp.; conditions: 13 strains of Aspergillus spp.; cited from earlier work
[4] = test system: Sporothrix schenkii; conditions: 1 strain of Sporothrix schenkii; cited from earlier work
[5] = test system: Mucor circinelloides; test: MIC determination against ATCC and clinical isolates of the order Mucorales (CLSI M27, 4th edition); type: cell-based
Description: as §1, §2

[6] = rats, cited from earlier work; for area under the curve to infinity (AUC(0-∞)) / elimination half-lives: amcipatricin diascorbate 1.25 mg/kg, amphotericin B 1 mg/kg
[7] = test system: Trichophyton spp.; conditions: 7 strains of Trichophyton spp.; cited from earlier work
[8] = test system: Rhizopus oryzae; conditions: 4 strains of Rhizopus oryzae; cited from earlier work
[9] = test system: Candida auris; test: MIC determination against clinical isolates of Candida auris (CLSI M27, 4th edition); type: cell-based; conditions: Candidozyma auris, read-out: MIC values
Description: as §1, §2

[10] = test system: Penicillium spp.; conditions: 5 strains of Penicillium spp.; cited from earlier work
[11] = test system: Microsporum spp.; conditions: 2 strains of Microsporum spp; cited from earlier work
[12] = test system: Candida sp.; conditions: cited from earlier work
[13] = test system: Mucor sp.; conditions: 4 strains of Mucor sp.; cited from earlier work
[14] = test system: rat erythrocytes; conditions: cited from earlier work
[15] = test system: Paecilomyces variotii; conditions: 2 strains Paecilomyces variotii; cited from earlier work
[16] = test system: Candida albicans; conditions: cited from earlier work
[17] = ATCC24905, strain ATCC 24905, ATCC strain
[18] = single intravenous administration
[19] = strain I.2 (No 2), clade I/India
[20] = strain I.3 (No 3), clade I/India
[21] = strain I.4 (No 4), clade I/India
[22] = strain II.1 (No 5), clade II/Japan
[23] = strain II.2 (No 1), clade II/India
[24] = strain III.7 (No 12), clade III/Switzerland
[25] = strain III.8 (No 13), clade III/Israel
[26] = strain III.9 (No 14), clade III/Israel
[27] = strain IV.1 (No 15), clade IV/Colombia
[28] = strain IV.10 (No 7), clade IV/Israel
[29] = strain IV.11 (No 8), clade IV/Israel
[30] = strain IV.12 (No 9), clade IV/Israel
[31] = strain IV.13 (No 10), clade IV/Israel
[32] = strain IV.14 (No 11), clade IV/Israel
[33] = strain IV.2 (No 16), clade IV/Colombia
[34] = strain IV.3 (No 17), clade IV/Colombia
[35] = strain IV.4 (No 18), clade IV/Colombia
[36] = strain IV.5 (No 19), clade IV/Colombia
[37] = strain IV.6 (No 20), clade IV/Colombia
[38] = strain IV.7 (No 21), clade IV/Colombia
[39] = strain IV.8 (No 22), clade IV/Colombia
[40] = strain IV.9 (No 6), clade IV/Israel

Structure (SMILES): C[C@@H]1[C@H](O)[C@@H](C)/C=C/C=C/C=C/C=C/C=C/C=C/C=C/[C@H](O[C@@H]2O[C@H](C)[C@@H](O)[C@H](N)[C@@H]2O)C[C@@H]2O[C@](O)(C[C@@H](O)C[C@@H](O)[C@H](O)CC[C@@H](O)C[C@@H](O)CC(=O)O[C@H]1C)C[C@H](O)[C@H]2C(=O)O [Amphotericin B]
- MIC [1]: 1 µg/mL (≈ 1.08 µM)
- MIC ([2]; strain 3315, clinical strain): 0.25 µg/mL (≈ 0.271 µM)
- MIC ([2]; strain 3435, clinical strain): 0.5 µg/mL (≈ 0.541 µM)
- geometric means of the minimum fungicidal concentrations [3]: 12.53 µg/mL
- MFC [4]: 19.2 µg/mL (≈ 20.8 µM)
- MIC [5, 17]: 0.25 µg/mL (≈ 0.271 µM)
- MIC ([5]; strain 2109, clinical strain): 0.5 µg/mL (≈ 0.541 µM)
- MIC ([5]; strain 2707, clinical strain): 0.25 µg/mL (≈ 0.271 µM)
- MIC ([5]; strain 4280, clinical strain): 1 µg/mL (≈ 1.08 µM)
- area under the curve to infinity (AUC(0-∞)) [6, 18]: 10330 ng·h/mL
- elimination half-lives [6, 18]: 18.15 h
- geometric means of the minimum fungicidal concentration values compared to amcipatricin diascorbate [7]: lower
- geometric means of the minimum fungicidal concentration values compared to amcipatricin diascorbate [8]: lower
- MIC [9, 19]: 1 µg/mL (≈ 1.08 µM)
- MIC [9, 20]: 1 µg/mL (≈ 1.08 µM)
- MIC [9, 21]: 1 µg/mL (≈ 1.08 µM)
- MIC [9, 22]: 0.5 µg/mL (≈ 0.541 µM)
- MIC [9, 23]: 0.25 µg/mL (≈ 0.271 µM)
- MIC [9, 24]: 0.5 µg/mL (≈ 0.541 µM)
- MIC [9, 25]: 0.5 µg/mL (≈ 0.541 µM)
- MIC [9, 26]: 1 µg/mL (≈ 1.08 µM)
- MIC [9, 27]: 2 µg/mL (≈ 2.16 µM)
- MIC [9, 28]: 0.25 µg/mL (≈ 0.271 µM)
- MIC [9, 29]: 0.5 µg/mL (≈ 0.541 µM)
- MIC [9, 30]: 0.5 µg/mL (≈ 0.541 µM)
- MIC [9, 31]: 1 µg/mL (≈ 1.08 µM)
- MIC [9, 32]: 0.5 µg/mL (≈ 0.541 µM)
- MIC [9, 33]: 2 µg/mL (≈ 2.16 µM)
- MIC [9, 34]: 2 µg/mL (≈ 2.16 µM)
- MIC [9, 35]: 1 µg/mL (≈ 1.08 µM)
- MIC [9, 36]: 1 µg/mL (≈ 1.08 µM)
- MIC [9, 37]: 1 µg/mL (≈ 1.08 µM)
- MIC [9, 38]: 1 µg/mL (≈ 1.08 µM)
- MIC [9, 39]: 1 µg/mL (≈ 1.08 µM)
- MIC [9, 40]: 0.5 µg/mL (≈ 0.541 µM)
- geometric means of the minimum fungicidal concentrations [10]: about 12 μg/mL
- geometric means of the minimum fungicidal concentration values compared to amcipatricin diascorbate [11]: lower

Structure (SMILES): CNc1ccc(C(=O)CC(O)CC[C@H](C)C2OC(=O)C[C@H](O)CC(=O)C[C@H](O)C[C@H](O)C[C@H](O)C[C@H](O)C[C@]3(O)C[C@H](O)[C@@H](C(=O)NCCN(C)C)C(C[C@@H](OC4OC(C)C(O)C(NC(=O)CN(C)C)C4O)/C=C/C=C/C=C/C=C\C=C/C=C/C=C/[C@@H]2C)O3)cc1 (stereo partly drawn) [Amcipatricin diascorbate, Candicidin D, 18-decarboxy-40-demethyl-3,7-dideoxo-N3′-[(dimethylamino)acetyl]-18-[[[2-(dimethylamino)ethyl]-amino]carbonyl]-3,7-dihydroxy-N47-methyl-5-oxo-, cyclic 15,19-hemiacetal, compound with L-ascorbic acid (1:2)]
- MIC [1]: 4 µg/mL (≈ 3.12 µM)
- MIC ([2]; strain 3315, clinical strain): 2 µg/mL (≈ 1.56 µM)
- MIC ([2]; strain 3435, clinical strain): 4 µg/mL (≈ 3.12 µM)
- drug concentrations inhibiting conversion from yeast to mycelial form [12]: 0.25 to 0.62 mg/L
- geometric means of the minimum fungicidal concentrations [3]: 12.53 µg/mL
- MFC [4]: 19.2 µg/mL (≈ 15 µM)
- fungicidal activity compared to amphotericin B [13]: most fungicidal
- MIC [5, 17]: 4 µg/mL (≈ 3.12 µM)
- MIC ([5]; strain 2109, clinical strain): 4 µg/mL (≈ 3.12 µM)
- MIC ([5]; strain 2707, clinical strain): 4 µg/mL (≈ 3.12 µM)
- MIC ([5]; strain 4280, clinical strain): 4 µg/mL (≈ 3.12 µM)
- AUC(0-00) ([6]; multiple administration 1.25 mg/kg/day for 7 days, intravenous, seventh day, serum): 72100 ng·h/mL
- serum elimination half-life ([6]; multiple administration 1.25 mg/kg/day for 7 days, intravenous, seventh day): 41.4 h
- area under the curve to infinity (AUC(0-∞)) [6, 18]: 35520 ng·h/mL
- elimination half-lives [6, 18]: 22.15 h
- tissue distribution [6, 18]: higher uptake by the kidneys, followed by the liver, spleen and lungs
- MIC [9, 19]: 2 µg/mL (≈ 1.56 µM)
- MIC [9, 20]: 2 µg/mL (≈ 1.56 µM)
- MIC [9, 21]: 2 µg/mL (≈ 1.56 µM)
- MIC [9, 22]: 2 µg/mL (≈ 1.56 µM)
- MIC [9, 23]: 2 µg/mL (≈ 1.56 µM)
- MIC [9, 24]: 1 µg/mL (≈ 0.78 µM)
- MIC [9, 25]: 1 µg/mL (≈ 0.78 µM)
- MIC [9, 26]: 1 µg/mL (≈ 0.78 µM)
- MIC [9, 27]: 2 µg/mL (≈ 1.56 µM)
- MIC [9, 28]: 2 µg/mL (≈ 1.56 µM)
- MIC [9, 29]: 1 µg/mL (≈ 0.78 µM)
- MIC [9, 30]: 1 µg/mL (≈ 0.78 µM)
- MIC [9, 31]: 2 µg/mL (≈ 1.56 µM)
- MIC [9, 32]: 2 µg/mL (≈ 1.56 µM)
- MIC [9, 33]: 2 µg/mL (≈ 1.56 µM)
- MIC [9, 34]: 2 µg/mL (≈ 1.56 µM)
- MIC [9, 35]: 2 µg/mL (≈ 1.56 µM)
- MIC [9, 36]: 2 µg/mL (≈ 1.56 µM)
- MIC [9, 37]: 2 µg/mL (≈ 1.56 µM)
- MIC [9, 38]: 2 µg/mL (≈ 1.56 µM)
- MIC [9, 39]: 2 µg/mL (≈ 1.56 µM)
- MIC [9, 40]: 2 µg/mL (≈ 1.56 µM)
- haemolytic minimum concentration against rat erythrocytes [14]: 18 mg/mL
- fungicidal activity compared to amphotericin B [15]: most fungicidal
- fungicidal minimum inhibitory concentration against Candida albicans [16]: 0.0075 µg/mL
- geometric means of the minimum fungicidal concentrations [10]: about 12 μg/mL

Reference: patent US20240317791A1 (priority 2021, published 2024)
